From patent US20060041123A1, “Antibacterial agents” (priority 2002, published 2006)

Assay: Antimicrobial activity assay: whole-cell MIC by broth microdilution (NCCLS M7-A6)
Type: cell-based
Conditions: versus all the organisms named above (S. aureus WCUH29, S. pneumoniae 1629, S. pyogenes CN 10, E. faecalis 2, H. influenzae NEMC1, E. coli 7623, M. catarrhalis Ravasio); read-out: MIC
Procedure, shortened: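 Broth microdilution per NCCLS M7-A6, with serial two-fold compound dilutions from 0.016 to 16 mcg/mL. MIC read as the lowest concentration inhibiting visible growth, using a mirror reader.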

Structure (SMILES) | MIC
COc1ccc2ncc(Cl)c(CCN3CC[C@@H](NCc4ccc5c(n4)NC(=O)CO5)[C@H](O)C3)c2n1.Cl.Cl.Cl (single isomer, unassigned; enantiomer 1) [Example 153, trans-6-({1-[2-(3-Chloro-6-methoxy-[1,5]naphthyridin-4-yl)-ethyl]-3-hydroxy-piperidin-4-ylamino}-methyl)-4H-pyrido[3,2-b][1,4] oxazin-3-one trihydrochloride Enantiomer 1] | ≤ 2 µg/mL
COc1ccc2ncc(F)c(CCN3CCC(NCc4ccc5c(c4)NC(=O)CCS5)CC3)c2n1 [Example 128, 7-{[(1-{2-[3-fluoro-6-(methoxy)-1,5-naphthyridin-4-yl]ethyl}-4-piperidinyl)amino]methyl}-2,3-dihydro-1,5-benzothiazepin-4(5H)-one] | ≤ 2 µg/mL
COc1ccc2ncc(F)c(CCN3CC[C@@H](NCc4ccc5c(n4)NC(=O)CO5)[C@H](O)C3)c2c1.Cl.Cl (relative stereo) [Example 133, trans-6-{[(1-{2-[3-fluoro-6-(methoxy)-4-quinolinyl]ethyl}-3-hydroxy-4-piperidinyl)amino]methyl}-2H-pyrido[3,2-b][1,4]oxazin-3(4H)-one dihydrochloride] | ≤ 2 µg/mL
COc1ccc2ncc(F)c(CCN3CCC(NCc4cnc5c(c4)OCCO5)CC3)c2c1.Cl.Cl [Example 85, N-(2,3-dihydro[1,4]dioxino[2,3-b]pyridin-7-ylmethyl)-1-(2-[3-fluoro-6-(methoxy)-4-quinolinyl]ethyl}-4-piperidinamine dihydrochloride] | ≤ 2 µg/mL
COc1ccc2ncc(Cl)c(CCN3CC[C@@H](NCc4ccc5c(n4)NC(=O)CO5)[C@H](O)C3)c2c1.Cl.Cl.Cl (single isomer, unassigned; enantiomer 2) [Example 18, 6-({(trans)-1-[2-(3-Chloro-6-methoxyquinolin-4-yl)ethyl]3-hydroxypiperidin-4-ylamino}methyl)-4H-pyrido[3,2-b][1,4]oxazin-3-one Trihydrochloride enantiomer 2] | ≤ 2 µg/mL
COc1cc(F)c2ncc(Cl)c(CCN3CCC(NCc4cc5c(cn4)OCCO5)CC3)c2c1 [Example 161, 1-{2-[3-chloro-8-fluoro-6-(methoxy)-4-quinolinyl]ethyl}-N-(2,3-dihydro[1,4]dioxino[2,3-c]pyridin-7-ylmethyl)-4-piperidinamine] | ≤ 2 µg/mL
COc1ccc2ncc(Cl)c(C(CO)CN3CCC(NCc4ccc5c(n4)NC(=O)CS5)CC3)c2n1.Cl.Cl (centres unmarked) [Example 105, 6-{[(1-{2-[3-chloro-6-(methoxy)-1,5-naphthyridin-4-yl]-3-hydroxypropyl}-4-piperidinyl)amino]methyl}-2H-pyrido[3,2-b][1,4]thiazin-3(4H)-one dihydrochloride] | ≤ 2 µg/mL
COc1ccc2ncc(Cl)c(CCN3CC[C@@H](NCc4ccc5c(n4)NC(=O)CS5)[C@H](O)C3)c2c1.Cl.Cl.Cl (single isomer, unassigned; enantiomer 2) [Example 17, 6-({(trans)-1-[2-(3-Chloro-6-methoxyquinolin-4-yl)ethyl]3-hydroxypiperidin-4-ylamino}methyl)-4H-pyrido[3,2-b][1,4]thiazin-3-one Trihydrochloride enantiomer 2] | ≤ 2 µg/mL
